Data: US10590082B2, “N-(5-((aryl or heteroaryl)methyloxy)pentyl)-substituted iminosugars as inhibitors of glucosylceramide synthase” (Academisch Medisch Centrum, priority 2014, dated 2020)
Like-named read-outs stand apart in the source and are kept apart here.

Columns and labels:
[1] = biological target: T1, glucosylceramide synthase (GCS) (Mus musculus, UniProt O88693); test: GCS activity in living macrophage  cells (C6-NBD lipid, TLC readout); format: cell-based
T1 construct: IC50 values for GCS activity were measured using living cells; endogenous in cells
T1 sequence (O88693 1-394): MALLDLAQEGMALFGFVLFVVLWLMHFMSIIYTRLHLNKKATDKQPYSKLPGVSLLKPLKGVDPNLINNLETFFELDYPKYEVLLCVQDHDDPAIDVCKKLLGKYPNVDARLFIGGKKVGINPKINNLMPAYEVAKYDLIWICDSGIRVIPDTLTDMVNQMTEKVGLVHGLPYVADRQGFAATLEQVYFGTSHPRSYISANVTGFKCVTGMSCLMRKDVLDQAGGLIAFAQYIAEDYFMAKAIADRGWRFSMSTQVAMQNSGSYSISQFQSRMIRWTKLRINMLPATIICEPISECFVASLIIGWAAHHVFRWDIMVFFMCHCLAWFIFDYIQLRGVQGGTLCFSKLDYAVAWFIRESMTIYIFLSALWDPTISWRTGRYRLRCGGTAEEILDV

[2] = biological target: T2, GBA2 (Homo sapiens, UniProt Q9HCG7); test: GBA2 activity, membrane fraction from Gaucher spleen, 4-MU-β-glucoside substrate; format: biochemical;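 also: Read-out is fluorimetric quantification of released 4-MU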
T2 construct: measured using a membrane fraction obtained from Gaucher spleen; from tissue; host or cells: membrane fraction of Gaucher spleen, pre-treated with conduritol B-epoxide
T2 sequence (Q9HCG7 1-927): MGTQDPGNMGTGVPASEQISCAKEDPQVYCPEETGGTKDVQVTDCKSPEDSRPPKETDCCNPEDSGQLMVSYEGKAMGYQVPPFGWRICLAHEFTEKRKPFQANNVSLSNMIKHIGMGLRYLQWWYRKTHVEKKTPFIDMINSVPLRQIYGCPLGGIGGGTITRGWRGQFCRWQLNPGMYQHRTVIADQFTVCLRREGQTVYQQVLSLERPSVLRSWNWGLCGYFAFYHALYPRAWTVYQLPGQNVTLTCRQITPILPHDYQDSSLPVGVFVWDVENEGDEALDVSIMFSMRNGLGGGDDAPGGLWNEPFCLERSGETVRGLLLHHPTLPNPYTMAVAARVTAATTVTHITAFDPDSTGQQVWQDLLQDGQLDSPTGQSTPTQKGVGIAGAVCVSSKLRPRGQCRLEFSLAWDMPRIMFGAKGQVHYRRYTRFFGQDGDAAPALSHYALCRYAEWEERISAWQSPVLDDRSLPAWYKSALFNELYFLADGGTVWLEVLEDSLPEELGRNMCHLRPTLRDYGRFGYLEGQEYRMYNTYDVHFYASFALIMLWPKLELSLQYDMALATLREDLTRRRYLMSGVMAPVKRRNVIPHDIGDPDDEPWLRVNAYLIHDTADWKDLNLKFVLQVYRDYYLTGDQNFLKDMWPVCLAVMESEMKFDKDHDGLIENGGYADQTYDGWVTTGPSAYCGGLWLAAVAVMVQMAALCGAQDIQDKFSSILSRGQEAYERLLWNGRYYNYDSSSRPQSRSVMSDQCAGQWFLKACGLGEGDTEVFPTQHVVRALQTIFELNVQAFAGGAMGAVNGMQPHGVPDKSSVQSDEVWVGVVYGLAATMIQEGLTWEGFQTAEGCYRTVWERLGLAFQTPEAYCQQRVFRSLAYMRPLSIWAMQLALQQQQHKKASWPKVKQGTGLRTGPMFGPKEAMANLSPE

[3] = biological target: T3, GBA1 (Homo sapiens, UniProt P04062, R534H); test: GBA1 activity, recombinant human enzyme (Cerezyme), 4-MU-β-glucoside substrate; format: biochemical;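 also: enzyme activity read out as fluorescence of the 4-MU released from the substrate, measured on a fluorimeter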
T3 construct: purchased Sanofi (Cerezyme)
T3 sequence (P04062 40-536 R534H): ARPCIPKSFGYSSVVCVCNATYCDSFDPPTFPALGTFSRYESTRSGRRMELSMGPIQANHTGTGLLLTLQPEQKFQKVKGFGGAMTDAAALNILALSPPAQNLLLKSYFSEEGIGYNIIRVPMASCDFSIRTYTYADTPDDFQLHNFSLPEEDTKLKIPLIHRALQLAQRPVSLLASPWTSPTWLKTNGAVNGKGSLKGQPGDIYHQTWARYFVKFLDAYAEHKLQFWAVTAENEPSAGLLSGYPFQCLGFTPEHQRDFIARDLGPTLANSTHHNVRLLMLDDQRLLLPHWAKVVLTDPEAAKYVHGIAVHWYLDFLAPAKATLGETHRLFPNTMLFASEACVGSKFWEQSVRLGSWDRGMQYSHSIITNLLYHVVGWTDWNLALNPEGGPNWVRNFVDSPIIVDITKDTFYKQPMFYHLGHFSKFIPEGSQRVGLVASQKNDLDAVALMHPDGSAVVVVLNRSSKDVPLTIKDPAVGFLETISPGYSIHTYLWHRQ

[4] = D-gluco configuration series, Example 3
[5] = L-ido configuration series, Example 4
[6] = L-ido configuration series, Example 4, read-out: GCS [nM] (IC50)
[7] = D-gluco configuration series, Example 3, read-out: GCS [nM] (IC50)

| SMILES | IC50 ([1]; read-out: GCS [nM] (IC50)) | IC50 [2, 4] | IC50 [3] | IC50 [2, 5] | IC50 [1, 6] | IC50 [2] | IC50 [1, 7] | IC50 ([1]; read-out: inhibitory potency towards GCS, expressed as IC50) |
| --- | --- | --- | --- | --- | --- | --- | --- | --- |
| COc1cccc(-c2ccc(COCCCCCN3C[C@H](O)[C@@H](O)[C@H](O)[C@H]3CO)cc2)c1 [Compound 32] | 150 nM | 20 nM | 2500 nM |  |  |  |  |  |
| OC[C@H]1[C@@H](O)[C@H](O)[C@@H](O)CN1CCCCCOCc1ccccc1-c1ccccc1 [Compound 40] | 25 nM |  | 15000 nM | 3 nM |  |  |  |  |
| C[C@@H](OCCCCCN1C[C@H](O)[C@@H](O)[C@H](O)[C@@H]1CO)c1ccc(-c2ccccc2)cc1 [Compound 39] |  |  | 10000 nM | 1 nM | 40 nM |  |  |  |
| OC[C@@H]1[C@@H](O)[C@H](O)[C@@H](O)CN1CCCC(F)(F)COCc1ccc(-c2ccccc2)cc1 [Compound 10] | 15 nM |  | 12500 nM |  |  | 2 nM |  |  |
| OC[C@@H]1[C@@H](O)[C@H](O)[C@@H](O)CN1CCCCCOCc1ccc(-c2cccnc2)cc1 [Compound 17] | 200 nM | 10 nM | 3000 nM |  |  |  |  |  |
| OC[C@@H]1[C@@H](O)[C@H](O)[C@@H](O)CN1CCCCCOCc1ccc(-c2ccnc(F)c2)cc1 [Compound 16] | 150 nM | 4 nM | 2000 nM |  |  |  |  |  |
| OC[C@@H]1[C@@H](O)[C@H](O)[C@@H](O)CN1CCCCCOCc1ccc(-c2ccc3c(c2)OCCO3)cc1 [Compound 20] | 25 nM |  | 3000 nM |  |  | 10 nM |  |  |
| C[C@H](OCCCCCN1C[C@H](O)[C@@H](O)[C@H](O)[C@H]1CO)c1ccc(-c2ccccc2)cc1 [Compound 4] |  |  | 10000 nM |  |  |  | 50 nM | 100 nM |
| OC[C@@H]1[C@@H](O)[C@H](O)[C@@H](O)CN1CCCCCOCc1ccc(-c2ccncc2)cc1 [Compound 18] |  | 10 nM | 2000 nM |  |  |  | 2000 nM |  |
| OC[C@H]1[C@@H](O)[C@H](O)[C@@H](O)CN1CCCCCOCc1ccc(-c2ccccc2)cc1F [Compound 46] | 5 nM |  | 8000 nM | 0.4 nM |  |  |  |  |
| OC[C@H]1[C@@H](O)[C@H](O)[C@@H](O)CN1CC(F)(F)CCCOCc1ccc(-c2ccccc2)cc1 [Compound 42] |  |  | 500000 nM | 2 nM |  |  |  |  |
| OC[C@H]1[C@@H](O)[C@H](O)[C@@H](O)CN1CCCCCOCc1ccc(-c2ccccc2)c(F)c1 [Compound 47] | 2.5 nM |  | 6000 nM | 0.6 nM |  |  |  |  |
| OC[C@@H]1[C@@H](O)[C@H](O)[C@@H](O)CN1CCCCCOCc1ccc(-c2ccccc2)cn1 [Compound 12] | 200 nM | 3 nM | 1500 nM |  |  |  |  |  |
| C[C@@H](OCCCCCN1C[C@H](O)[C@@H](O)[C@H](O)[C@H]1CO)c1ccc(-c2ccccc2)cc1 [Compound 5] |  |  | 10000 nM |  |  |  | 40 nM |  |
| OC[C@H]1[C@@H](O)[C@H](O)[C@@H](O)CN1CCCCCOCc1ccc(-c2ccccc2)cc1C(F)(F)F [Compound 44] | 3 nM |  | 5000 nM | 0.1 nM |  |  |  |  |
| OC[C@@H]1[C@@H](O)[C@H](O)[C@@H](O)CN1CCCCCOCc1ccc(-c2ccc(F)nc2)cc1 [Compound 15] | 750 nM | 5 nM | 3000 nM |  |  |  |  |  |
| OC[C@H]1[C@@H](O)[C@H](O)[C@@H](O)CN1CCCCCOCc1cccc(-c2ccccc2)c1 [Compound 41] | 75 nM |  | 20000 nM | 2 nM |  |  |  |  |
| OC[C@@H]1[C@@H](O)[C@H](O)[C@@H](O)CN1CCCCCOCc1ccc(-c2ccc3c(c2)OCCCO3)cc1 [Compound 19] | 25 nM |  | 3000 nM |  |  | 10 nM |  |  |
| C[C@H](OCCCCCN1C[C@H](O)[C@@H](O)[C@H](O)[C@@H]1CO)c1ccc(-c2ccccc2)cc1 [Compound 38] |  |  | 10000 nM | 2 nM | 30 nM |  |  |  |

Now those with a lower IC50 [3], led by results:

| IC50 ([1]; read-out: GCS [nM] (IC50)) | IC50 [2, 4] | IC50 [3] | IC50 [2, 5] | IC50 [1, 6] | IC50 [2] | IC50 [1, 7] | IC50 ([1]; read-out: inhibitory potency towards GCS, expressed as IC50) | SMILES |
| --- | --- | --- | --- | --- | --- | --- | --- | --- |
| 75 nM | 2 nM | 300 nM |  |  |  |  |  | OC[C@@H]1[C@@H](O)[C@H](O)[C@@H](O)CN1CCCCCOCc1cccc(-c2ccccc2)c1 [Compound 13] |
| 50 nM | 3 nM | 1250 nM |  |  |  |  |  | OC[C@@H]1[C@@H](O)[C@H](O)[C@@H](O)CN1CCCCCOCc1ccccc1-c1ccccc1 [Compound 14] |
| 20 nM | 15 nM | 800 nM |  |  |  |  |  | OC[C@@H]1[C@@H](O)[C@H](O)[C@@H](O)CN1CCCCCOCc1ccc(-c2cc(C(F)(F)F)cc(C(F)(F)F)c2)cc1 [Compound 22] |
| 25 nM | 0.12 nM | 200 nM |  |  |  |  |  | OC[C@@H]1[C@@H](O)[C@H](O)[C@@H](O)CN1CCCCCOCc1ccc(-c2ccccc2)cc1C(F)(F)F [Compound 8] |
| 25 nM | 2 nM | 500 nM |  |  |  |  |  | OC[C@@H]1[C@@H](O)[C@H](O)[C@@H](O)CN1CCCCCOCc1ccc(-c2ccc(Cl)cc2)cc1 [Compound 24] |
| 50 nM |  | 600 nM |  |  | 0.7 nM |  |  | COc1ccccc1-c1ccc(COCCCCCN2C[C@H](O)[C@@H](O)[C@H](O)[C@H]2CO)cc1 [Compound 31] |
| 74 nM | 2 nM | 600 nM |  |  |  |  |  | OC[C@@H]1[C@@H](O)[C@H](O)[C@@H](O)CN1CCCCCOCc1ccc(-c2ccccc2F)cc1 [Compound 25] |
|  | 2 nM | 700 nM |  |  |  | 50 nM |  | N#Cc1cccc(-c2ccc(COCCCCCN3C[C@H](O)[C@@H](O)[C@H](O)[C@H]3CO)cc2)c1 [Compound 29] |
| 25 nM |  | 250 nM |  |  | 2 nM |  |  | OC[C@@H]1[C@@H](O)[C@H](O)[C@@H](O)CN1CCCCCOCc1ccc(-c2cccc(F)c2)cc1 [Compound 26] |
| 150 nM | 5 nM | 600 nM |  |  |  |  |  | N#Cc1ccccc1-c1ccc(COCCCCCN2C[C@H](O)[C@@H](O)[C@H](O)[C@H]2CO)cc1 [Compound 28] |
| 25 nM |  | 200 nM |  |  |  |  |  | OC[C@@H]1[C@@H](O)[C@H](O)[C@@H](O)CN1CCCCCOCc1ccc(-c2ccccc2)c(F)c1 [Compound 7] |
| 150 nM | 3 nM | 350 nM |  |  |  |  |  | N#Cc1ccc(-c2ccc(COCCCCCN3C[C@H](O)[C@@H](O)[C@H](O)[C@H]3CO)cc2)cc1 [Compound 30] |
| 25 nM |  | 100 nM |  |  |  |  |  | OC[C@@H]1[C@@H](O)[C@H](O)[C@@H](O)CN1CCCCCOCc1ccc(-c2ccccc2)c(C(F)(F)F)c1 [Compound 9] |
| 20 nM | 10 nM | 800 nM |  |  |  |  |  | OC[C@@H]1[C@@H](O)[C@H](O)[C@@H](O)CN1CCCCCOCc1ccc(-c2ccc(C(F)(F)F)cc2)cc1 [Compound 23] |
| 25 nM | 1 nM | 400 nM |  |  |  |  |  | OC[C@@H]1[C@@H](O)[C@H](O)[C@@H](O)CN1CCCCCOCc1ccc(-c2ccc(F)cc2)cc1 [Compound 27] |
|  | 0.5 nM | 70 nM |  |  |  | 25 nM |  | Cc1ccccc1-c1ccc(COCCCCCN2C[C@H](O)[C@@H](O)[C@H](O)[C@H]2CO)cc1 [Compound 34] |
| 25 nM |  | 250 nM |  |  |  |  |  | OC[C@@H]1[C@@H](O)[C@H](O)[C@@H](O)CN1CCCCCOCc1ccc(-c2ccccc2)cc1F [Compound 6] |
